Data taken from patent US20020120147A1, “Micronized torsemide” (priority 2000, published 2002).

Assays:
[1] = background statement; cited from earlier work
[2] = particle size after micronization in a micronizer; assay type: physicochemical; conditions: pure dry torsemide micronized in a micronizer (Example 1)
From the text: Pure dry torsemide was micronized in a micronizer. The result was micronized torsemide of a particle size of less than 5 micrometer.

Structure (SMILES)	solubility in water [1]	particle size [2]
Cc1cccc(Nc2ccncc2S(=O)(=O)NC(=O)NC(C)C)c1 [Torsemide, 1-Isopropyl-3-[(4-m-toluidino-3-pyridyl)sulfonyl] urea]	essentially insoluble	–
Cc1cccc(Nc2ccncc2S(=O)(=O)NC(=O)NC(C)C)c1 [micronized torsemide, 1-Isopropyl-3-[(4-m-toluidino-3-pyridyl)sulfonyl] urea]	–	less than 5 micrometer
